The values that follow come from patent publication US7452997B2 (priority 2004, dated 2008).

Like-named read-outs stand apart in the source and are kept apart here.

One may read the IC50 as the concentration at which inhibition is half-maximal. Higher therefore signals weaker potency. The EC50 is the concentration giving half of the maximal effect.

For assay [1], the target named is T1, human CB2 receptor (Homo sapiens, UniProt P34972). As to the kind of experiment: Binding assay, cannabinoid CB2 receptor ([3H]-CP-55,940 displacement). Particulars: Cannabinoid CB2 Receptor Binding IC50, human CB2 receptor, SK-N-MC cell membranes, radioligand CP-55,940 0.2 nM. In short, it runs like this:
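Membranes from SK-N-MC cells stably expressing human CB2, incubated with test compound and 0.2 nM [3H]-CP-55,940 for 90 min at 30 °C in Tris buffer pH 7.5 with fatty-acid-free BSA. Nonspecific binding defined with 10 uM WIN 55,212; filtration and scintillation counting, IC50 by linear regression.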

For assay [2], the target named is T2, human CB1 receptor (Homo sapiens, UniProt P21554).
T2 construct: expressed in transfected cells; host or cells: SK-N-MC cells, stably transfected with pcDNA3 CB-1 (human); semi-purified membrane pellet
As to the kind of experiment: biochemical. It is filed as binding. The gist of the method:
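Membranes from SK-N-MC cells stably expressing human CB1, incubated 90 minutes at 30° C in Tris-HCl buffer with MgCl2, EDTA and fatty acid free BSA, pH 7.5. Bound counts collected by filtration and scintillation counting; IC50 from linear regression over varying compound concentrations.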

For assay [3], the target named is T1, human CB2 receptor. The assay is described as follows: Functional cell-based assay, CB2 receptor mediated change in CRE β-gal expression (agonist / inverse agonist). Particulars: SK-N-MC cells, forskolin. The text has this: Functional Cell-Based Assay for CB1 or CB2 Agonist and Inverse Agonist Effects on Intra-Cellular Adenylate Cyclase Activity
The CB1 and CB2 receptors are G-protein coupled receptors (GPCR) which influence cell function via the Gi-protein. These receptors modulate the activity of intracellular adenylate cyclase which in turn produces the intracellular signal messenger cyclic-AMP (cAMP).
At baseline, or during non-ligand bound conditions, these receptors are constitutively active and tonically suppress adenylate cyclase activity. The binding of an agonists causes further receptor activation and produces additional suppression of adenylate cyclase activity. The binding of an inverse agonist inhibits the constitutive activity of the receptors and results in an increase in adenylate cyclase activity.
By monitoring intracellular adenylate cyclase activity, the ability of compounds to act as agonists or inverse agonists can be determined.
Test compounds were evaluated in SK-N-MC cells which, using standard transfection procedures, were stably transfected with human cDNA for pcDNA3-CRE β-gal and pcDNA3 CB1 receptor (human) or pcDNA3 CB2 receptor (human). By expressing CRE β-gal, the cells produced β-galactosidase in response to CRE promoter activation by cAMP. Cells expressing CRE β-gal and either the human CB1 or CB2 receptor will produce less β-galactosidase when treated with a CB1/CB2 agonist and will produce more β-galactosidase when treated with a CB1/CB2 inverse agonist.
The cells were grown in 96-well plates under standard cell culture conditions at 37° C. in a 5% CO2 atmosphere. After 3 days, the media was removed and a test compound in media (wherein the media was supplemented with 2 mM L-glutamine, […] sodium pyruvate, 0.1% low fatty acid FBS (fetal bovine serum) and antibiotics) was added to the cell. The plates were incubated for 30 minutes at 37° C. and the plate cells were then treated with forskolin over a 4-6 hour period, then washed and lysed. The β-galactosidase activity was quantitated using commercially available kit reagents (Promega Corp. Madison, Wis.) and a VMAX Plate Reader (Molecular Devices, Inc).
For cells expressing CRE β-gal and the CB2 receptor, CB2 agonists reduced β-galactosidase activity in a dose-dependent manner and CB2 inverse agonists increased β-galactosidase activity in a dose-dependent manner.
The change in β-galactosidase activity was determined by setting a vehicle treated cell's activity value at 100% and expressing the β-galactosidase activity measured in a corresponding compound treated cell as a percent of the vehicle treated cell activity.
The EC50 values for compounds tested were calculated by linear regression and were obtained from studies in which varying compound concentrations were used.

Where [4] appears, read: inverse agonist, read-out: CB2 Receptor Functional Inverse Agonist EC50.
The mark [5] stands for this setting: agonist, read-out: CB2 Receptor Functional Agonist EC50.

T2 sequence (P21554 whole entry): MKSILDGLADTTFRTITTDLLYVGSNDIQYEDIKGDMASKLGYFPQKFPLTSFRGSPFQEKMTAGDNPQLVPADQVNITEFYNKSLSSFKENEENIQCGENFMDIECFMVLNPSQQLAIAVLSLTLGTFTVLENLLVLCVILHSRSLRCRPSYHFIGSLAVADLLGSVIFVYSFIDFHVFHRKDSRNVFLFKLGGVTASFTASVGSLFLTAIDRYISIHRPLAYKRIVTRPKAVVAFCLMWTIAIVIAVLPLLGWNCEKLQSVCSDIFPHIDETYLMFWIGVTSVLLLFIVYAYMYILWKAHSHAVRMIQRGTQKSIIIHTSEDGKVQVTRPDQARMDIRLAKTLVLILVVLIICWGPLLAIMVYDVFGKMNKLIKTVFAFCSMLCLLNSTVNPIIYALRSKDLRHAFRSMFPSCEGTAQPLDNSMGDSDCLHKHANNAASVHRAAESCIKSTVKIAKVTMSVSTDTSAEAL
T1 sequence (P34972 whole entry): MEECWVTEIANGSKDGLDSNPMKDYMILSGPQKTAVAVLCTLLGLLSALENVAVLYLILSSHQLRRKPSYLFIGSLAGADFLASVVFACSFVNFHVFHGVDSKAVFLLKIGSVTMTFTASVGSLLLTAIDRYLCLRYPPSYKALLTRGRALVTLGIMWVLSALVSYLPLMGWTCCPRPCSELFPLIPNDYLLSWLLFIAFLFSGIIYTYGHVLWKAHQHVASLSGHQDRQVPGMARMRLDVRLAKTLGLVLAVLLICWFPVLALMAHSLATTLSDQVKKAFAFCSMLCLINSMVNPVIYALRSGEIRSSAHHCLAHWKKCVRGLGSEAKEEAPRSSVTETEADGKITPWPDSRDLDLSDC

In the case of `CCOC(=O)[C@H]1CCc2c(c(C(=O)NC3C4CC5CC(C4)CC3C5)nn2C2CCCCC2)C1` (stereo partly drawn) [Cpd 208, (5S)-3-(adamantan-2-ylcarbamoyl)-1-cyclohexyl-4,5,6,7-tetrahydro-1H-indazole-5-carboxylic acid ethyl ester], the IC50 in assay [1] turned out to be 14 nM; in assay [2] it was 660 nM. Moreover, the concentration for a half-maximal effect (EC50) in assay [3] (setting [4]) was found to be 8.6 nM.
The corresponding values for `CCOC(=O)[C@@H]1CCc2c(c(C(=O)NC3C4CC5CC(C4)CC3C5)nn2C2CCCCC2)C1` (stereo partly drawn) [Cpd 209, (5R)-3-(adamantan-2-ylcarbamoyl)-1-cyclohexyl-4,5,6,7-tetrahydro-1H-indazole-5-carboxylic acid ethyl ester] are 200 nM, 260 nM and 74 nM.
With `CC12CCC(C1)C(C)(C)C2NC(=O)c1nn(-c2ccccc2)c2c1CCCC2` (centres unmarked) [compound 1], the IC50 in assay [1] came out at 13.5 nM; in assay [2], 377 nM. Further, the EC50 in assay [3] (setting [5]) was 15 nM.
Turning to `COC(=O)C(Cc1cccc(OCc2ccccc2)c1)NC(=O)c1nn(-c2ccc(OC)cc2)c2c1CCCC2` (centres unmarked) [compound 3], the IC50 in assay [1] was 428 nM. Further, the EC50 in assay [3] (setting [4]) is 190 nM.
For `CC12CCC(C1)C(C)(C)C2NC(=O)c1nn(-c2ccc(F)cc2)c2c1CCCC2` (centres unmarked) [compound 10], the concentration for half-maximal inhibition (IC50) in assay [1] amounted to 6 nM; in assay [2], 45 nM. Also, the EC50 in assay [3] (setting [5]) is 1.9 nM.
With `CC1CCCc2c(C(=O)NC3C4(C)CCC(C4)C3(C)C)nn(-c3ccc(F)cc3)c21` (centres unmarked) [compound 13], the IC50 in assay [1] is 6.5 nM; in assay [2], 108 nM. Besides, the EC50 in assay [3] (setting [5]) is 4.1 nM.
The corresponding values for `CC12CCC(C1)C(C)(C)C2NC(=O)c1nn(-c2cccc(F)c2)c2c1CCCC2` (centres unmarked) [compound 18] are 3.6 nM, 91.8 nM and 2.7 nM.
The corresponding values for `CC(NC(=O)c1nn(C2CCCCC2)c2c1CCCC2)C12CC3CC(CC(C3)C1)C2` (centres unmarked) [compound 26] are 15 nM, 723 nM and 11 nM.
For `O=C(NCC12CC3CC(CC(C3)C1)C2)c1nn(C2CCCCC2)c2c1CCCC2` [compound 32], in that order: 6.9 nM, 20 nM and 47 nM.
As to `O=C(NN1CCCCCC1)c1nn(-c2ccc(F)cc2)c2c1CCCC2` [compound 35], the figures for the IC50 in assay [1] and in assay [2] were 94 nM and 700 nM, respectively. In addition, the EC50 in assay [3] (setting [5]) is 35 nM.
The corresponding values for `CCOC(=O)[C@@H]1CCCC[C@@H]1NC(=O)c1nn(C2CCCCC2)c2c1CCCC2` [compound 36] are 12.8 nM, 105 nM and 5 nM.
For `O=C(NN1CCCCCC1)c1nn(C2CCCCC2)c2c1CCCC2` [compound 37], in that order: 112 nM, 69.3 nM and 10 nM.
For `O=C(NC1C2CCC(C2)C1CO)c1nn(C2CCCCC2)c2c1CCCC2` (centres unmarked) [compound 40], in that order: 215 nM, 1440 nM and 31 nM.
In the case of `O=C(NC12CC3CC(CC(C3)C1)C2)c1nn(C2CCCCC2)c2c1CCCC2` [compound 44], the concentration for half-maximal inhibition (IC50) in assay [1] was determined as 2.4 nM; in assay [2], 79 nM. The EC50 in assay [3] (setting [5]) was 29 nM.
The corresponding values for `O=C(NC1C2CC3CC(C2)CC1C3)c1nn(C2CCCCC2)c2c1CCCC2Cl` (centres unmarked) [compound 62] are 5 nM, 280 nM and 0.57 nM.
The corresponding values for `COC(=O)C(Cc1ccc(O)cc1)NC(=O)c1nn(Cc2ccccc2)c2c1CCCC2` (centres unmarked) [compound 75] are 0.7 nM, 23.7 nM and 0.1 nM.
For `O=C(NC1C2CC3CC(C2)CC1C3)c1nn(C2CCCCC2)c2c1CC(NC(=O)C(F)(F)F)CC2` (centres unmarked) [compound 87], in that order: 26.6 nM, 855 nM and 250 nM.
